According to ChEMBL document CHEMBL1201862, “PubChem BioAssay data set” (2004):
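Interpolation was linear, between the two tested concentrations surrounding the appropriate level; five concentrations were tested over 48 hours in 96-well plates. GI50 = concentration required for 50% inhibition of growth.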 Calls of active or inactive are those of the source. Cut-off read from the data, not from the text of the source: active = GI50 up to about 1.1 µM and inactive = higher.

Assays:
Assay in all cases: NCI anticancer screen, dose series, 48 h
786-0 = system: 786-0
ACHN = system: ACHN
CAKI-1 = system: CAKI-1
COLO 205 = system: COLO 205
DMS-114 = system: DMS-114
DMS-273 = system: DMS-273
EKVX = system: EKVX
HCC 2998 = system: HCC 2998
HCT-116 = system: HCT-116
HCT-15 = system: HCT-15
HOP-18 = system: HOP-18
HOP-62 = system: HOP-62
HOP-92 = system: HOP-92
HT-29 = system: HT-29
IGROV-1 = system: IGROV-1
K562 = system: K562
KM-20L2 = system: KM-20L2
KM12 = system: KM12
LOX IMVI = system: LOX IMVI
LXFL 529 = system: LXFL 529
M14 = system: M14
M19-MEL = system: M19-MEL
MOLT-4 = system: MOLT-4
Malme-3M = system: Malme-3M
NCI-H226 = system: NCI-H226
NCI-H23 = system: NCI-H23
NCI-H460 = system: NCI-H460
NCI-H522 = system: NCI-H522
OVCAR-3 = system: OVCAR-3
OVCAR-4 = system: OVCAR-4
OVCAR-5 = system: OVCAR-5
OVCAR-8 = system: OVCAR-8
RPMI-8226 = system: RPMI-8226
RXF 393 = system: RXF 393
SF-268 = system: SF-268
SF-295 = system: SF-295
SF-539 = system: SF-539
SK-MEL-28 = system: SK-MEL-28
SK-MEL-2 = system: SK-MEL-2
SK-MEL-5 = system: SK-MEL-5
SK-OV-3 = system: SK-OV-3
SN12C = system: SN12C
SNB-19 = system: SNB-19
SNB-75 = system: SNB-75
SNB-78 = system: SNB-78
SW-620 = system: SW-620
TK-10 = system: TK-10
U-251 = system: U-251
UACC-257 = system: UACC-257
UACC-62 = system: UACC-62
UO-31 = system: UO-31
XF498 = system: XF498
A498 = system: A498
A549 = system: A549
CCRF-CEM = system: CCRF-CEM
DLD-1 = system: DLD-1
HL-60 = system: HL-60
SR = system: SR

With `O=C1C(=O)N(c2ccc(Cl)cc2)C(=O)C(=O)C1c1nc2ccccc2s1` the GI50 (786-0) was > 100 µM (inactive), the GI50 (ACHN) was 89.3 µM (inactive) and the GI50 (CAKI-1) was > 100 µM (inactive). The GI50 (COLO 205) was > 100 µM (inactive), the GI50 (DMS-114) was > 100 µM (inactive) and the GI50 (DMS-273) was > 100 µM (inactive). The GI50 (EKVX) was > 100 µM (inactive), the GI50 (HCC 2998) was > 100 µM (inactive) and the GI50 (HCT-116) was > 100 µM (inactive). The GI50 (HCT-15) was over 100 µM, the GI50 (HOP-18) was > 100 µM (inactive) and the GI50 (HOP-62) was 42.7 µM (inactive). For the same compound, the GI50 (HOP-92) was > 100 µM (inactive), the GI50 (HT-29) was > 100 µM (inactive) and the GI50 (IGROV-1) was 71 µM (inactive). For the same compound, the GI50 (K562) was > 100 µM (inactive), the GI50 (KM-20L2) was > 100 µM (inactive) and the GI50 (KM12) was > 100 µM (inactive). The GI50 (LOX IMVI) was > 100 µM (inactive), the GI50 (LXFL 529) was > 100 µM (inactive) and the GI50 (M14) was > 100 µM (inactive). The GI50 (M19-MEL) was > 100 µM (inactive), the GI50 (MOLT-4) was 21.9 µM (inactive) and the GI50 (Malme-3M) was > 100 µM (inactive). For the same compound, the GI50 (NCI-H226) was > 100 µM (inactive), the GI50 (NCI-H23) was > 100 µM (inactive) and the GI50 (NCI-H460) was > 100 µM (inactive). For the same compound, the GI50 (NCI-H522) was > 100 µM (inactive), the GI50 (OVCAR-3) was > 100 µM (inactive) and the GI50 (OVCAR-4) was > 100 µM (inactive). For the same compound, the GI50 (OVCAR-5) was > 100 µM (inactive), the GI50 (OVCAR-8) was > 100 µM (inactive) and the GI50 (RPMI-8226) was > 100 µM (inactive). For the same compound, the GI50 (RXF 393) was > 100 µM (inactive), the GI50 (SF-268) was > 100 µM (inactive) and the GI50 (SF-295) was > 100 µM (inactive). The GI50 (SF-539) was 74.3 µM (inactive), the GI50 (SK-MEL-28) was > 100 µM (inactive) and the GI50 (SK-MEL-2) was > 100 µM (inactive). The GI50 (SK-MEL-5) was > 100 µM (inactive), the GI50 (SK-OV-3) was > 100 µM (inactive) and the GI50 (SN12C) was > 100 µM (inactive). The GI50 (SNB-19) was > 100 µM (inactive), the GI50 (SNB-75) was > 100 µM (inactive) and the GI50 (SNB-78) was > 100 µM (inactive). For the same compound, the GI50 (SW-620) was > 100 µM (inactive), the GI50 (TK-10) was > 100 µM (inactive) and the GI50 (U-251) was > 100 µM (inactive). The GI50 (UACC-257) was > 100 µM (inactive), the GI50 (UACC-62) was > 100 µM (inactive) and the GI50 (UO-31) was > 100 µM (inactive). The GI50 (XF498) was > 100 µM (inactive).
For `O=C(O)[C@@H]1OCCOCCO[C@@H](C(=O)O)[C@H](C(=O)O)OCCOCCO[C@H]1C(=O)O`, the GI50 (786-0) was > 100 µM (inactive), the GI50 (A498) was > 100 µM (inactive) and the GI50 (A549) was > 100 µM (inactive). For the same compound, the GI50 (ACHN) was > 61.8 µM (inactive), the GI50 (CAKI-1) was > 100 µM (inactive) and the GI50 (CCRF-CEM) was > 51.2 µM (inactive). For the same compound, the GI50 (COLO 205) was > 61.7 µM (inactive), the GI50 (DLD-1) was > 42.1 µM (inactive) and the GI50 (DMS-114) was > 50.8 µM (inactive). The GI50 (DMS-273) was > 100 µM (inactive), the GI50 (EKVX) was > 100 µM (inactive) and the GI50 (HCC 2998) was > 100 µM (inactive). For the same compound, the GI50 (HCT-116) was > 67.8 µM (inactive), the GI50 (HCT-15) was over 55.8 µM and the GI50 (HL-60) was 14.3 µM (inactive). For the same compound, the GI50 (HOP-18) was > 100 µM (inactive), the GI50 (HOP-62) was > 100 µM (inactive) and the GI50 (HOP-92) was > 100 µM (inactive). For the same compound, the GI50 (HT-29) was > 100 µM (inactive), the GI50 (IGROV-1) was > 100 µM (inactive) and the GI50 (K562) was > 72.3 µM (inactive). The GI50 (KM-20L2) was > 100 µM (inactive), the GI50 (KM12) was > 100 µM (inactive) and the GI50 (LOX IMVI) was > 71.3 µM (inactive). For the same compound, the GI50 (LXFL 529) was > 100 µM (inactive), the GI50 (M14) was > 100 µM (inactive) and the GI50 (M19-MEL) was > 100 µM (inactive). The GI50 (MOLT-4) was > 64.3 µM (inactive), the GI50 (Malme-3M) was > 100 µM (inactive) and the GI50 (NCI-H226) was > 100 µM (inactive). The GI50 (NCI-H23) was > 100 µM (inactive), the GI50 (NCI-H460) was > 64.4 µM (inactive) and the GI50 (NCI-H522) was > 100 µM (inactive). For the same compound, the GI50 (OVCAR-3) was > 100 µM (inactive), the GI50 (OVCAR-4) was > 100 µM (inactive) and the GI50 (OVCAR-5) was > 100 µM (inactive). For the same compound, the GI50 (OVCAR-8) was > 100 µM (inactive), the GI50 (RPMI-8226) was > 38.4 µM (inactive) and the GI50 (SF-268) was > 100 µM (inactive). The GI50 (SF-295) was > 100 µM (inactive), the GI50 (SF-539) was > 100 µM (inactive) and the GI50 (SK-MEL-28) was > 100 µM (inactive). For the same compound, the GI50 (SK-MEL-2) was > 100 µM (inactive), the GI50 (SK-MEL-5) was > 100 µM (inactive) and the GI50 (SK-OV-3) was > 100 µM (inactive). For the same compound, the GI50 (SN12C) was > 100 µM (inactive), the GI50 (SNB-19) was > 100 µM (inactive) and the GI50 (SNB-75) was 97.9 µM (inactive). The GI50 (SNB-78) was > 100 µM (inactive), the GI50 (SR) was 19.1 µM (inactive) and the GI50 (SW-620) was > 50.1 µM (inactive). The GI50 (TK-10) was > 100 µM (inactive), the GI50 (U-251) was > 42.1 µM (inactive) and the GI50 (UACC-257) was > 100 µM (inactive). The GI50 (UACC-62) was > 100 µM (inactive), the GI50 (UO-31) was > 100 µM (inactive) and the GI50 (XF498) was > 30.3 µM (inactive).
